Legend:
healthy adults = test: Phase I single-dose safety and tolerability of TPIP in healthy adults; format: in vivo, human; conditions: single doses 112.5, 225, 450 and 675 μg
Experimental: Specifically, in a Phase I safety, tolerability, and PK study, healthy adults were administered single doses of 112.5 μg, 225 μg, 450 μg, and 675 μg of a compound of Formula (II).

[1] = Nonclinical studies of TP: conversion, delivery, PK and PD
From the text: (§1) Treprostinil palmitil (TP) is a hexadecyl ester prodrug of treprostinil (TRE). In the lung, TP is hydrolyzed by esterases to TRE and hexadecanol.

rodent model of PAH = test: Rodent model of PAH; format: in vivo; conditions: inhibition of associated adverse pathology and pathophysiology
From the text: as §1

[2] = Nonclinical safety and toxicology of TP; format: in vivo
From the text: as §1

[3] = system: subjects with pulmonary hypertension; test: Phase 2 safety and efficacy study in subjects with pulmonary hypertension; format: in vivo, human
Experimental: In a Phase 2 safety and efficacy study, the following doses of were investigated in subjects with pulmonary hypertension, including pulmonary arterial hypertension: 80 μg, 160 μg, 240 μg, 320 μg, 400 μg, 480 μg, and 640 μg. In this study, patients were administered a starting dose of 80 μg of the TPIP and the dose was titrated up to 640 μg according to FIG. 2.

[4] = Phase I pharmacokinetics of treprostinil after inhalation of the compound of Formula (II); format: in vivo, human; conditions: dose range of 112.5 μg to 675 μg
Experimental: The term “Cmax” means the maximum (or peak) treprostinil serum concentration measured after a compound of Formula (I) or (II), an enantiomer or diastereomer thereof, or a pharmaceutically acceptable salt thereof is administered to the lungs of a subject via a dry powder composition described herein. In addition, Cmax may be measured after a single administration of a compound of Formula (I) or (II), an enantiomer or diastereomer thereof, or a pharmaceutically acceptable salt thereof, described herein, or treprostinil Cmax may be measured at steady state. Unless stated otherwise, Cmax refers to the average treprostinil Cmax measured after a single administration among a population of subjects (e.g., a population of PH patients).
The term “AUC” means the area under the plasma concentration time curve for treprostinil, measured from time 0 to a certain time post-administration to the lungs of a subject, calculated by a combination of linear and logarithmic trapezoidal methods (Linear up/log down method). […] In addition, treprostinil AUC may be measured after a single administration or at steady state values. Unless stated otherwise, AUC refers to the average AUC measured after a single administration among a population of subjects (e.g., a population of PH patients). […]

PK and PD profile [1]: prolonged PK and PD profile
delivery of treprostinil to the lungs and systemic circulation [1]: sustained delivery
pharmacokinetic (PK) profile, dose linearity [4]: linear
Compound: CCCCCCCCCCCCCCCCOC(=O)COc1cccc2c1C[C@H]1C[C@@H](O)[C@H](CC[C@@H](O)CCCCC)[C@H]1C2 [treprostinil palmitil]
safety and tolerability (healthy adults): safe and well-tolerated
serious or severe TEAEs (healthy adults): no serious or severe TEAEs were observed
conversion from the prodrug to the active drug, treprostinil ([1]; in vitro and in vivo): converted from the prodrug to the active drug, treprostinil
efficacy in a rodent model of PAH (rodent model of PAH): efficacious
preclinical safety or toxicological findings [2]: did not demonstrate concerning preclinical safety or toxicological findings
tolerability ([3]; 640 μg, highest dose administered in a clinical trial): well tolerated
tolerability ([3]; all doses, 80 μg to 640 μg): well tolerated
efficacy ([3]; higher doses): promising efficacy
